From article PMC11127902, “Rescuing tri-heteromeric NMDA receptor function: the potential of pregnenolone-sulfate in loss-of-function GRIN2B variants” (Cellular and Molecular Life Sciences: CMLS, 2024)

Key:
[1] = tested on: Mixed di-heteromeric GluN2A-wt/GluN2A-T690A; set-up: method as in PMID 24607230; details: glutamate; ref 8; cited from earlier work
[2] = tested on: Pure variant di-heteromeric GluN2B-E413G; set-up: method as in PMID 27839871; details: glutamate; ref 21; cited from earlier work
[3] = tested on: Mixed tri-heteromeric GluN2A-L812M/ GluN2B-wt; set-up: method as in PMID 35110392; details: glutamate; ref 10; cited from earlier work
[4] = tested on: non-tagged purely di-heteromeric GluN2B-G689C; details: read-out: Glutamate EC50 (adapted from[16]); non-tagged human receptors; cited from earlier work
[5] = tested on: Pure variant di-heteromeric GluN2A-P552R; set-up: method as in PMID 28095420; details: glutamate; di-heteromer section; cited from earlier work
[6] = tested on: non-tagged purely di-heteromeric GluN2B-wt; set-up: method as in PMID 32168371; details: read-out: Glutamate EC50 (adapted from[16]); non-tagged human receptors; cited from earlier work
[7] = tested on: Pure variant di-heteromeric GluN2A-E551K; set-up: method as in PMID 35110392; details: glutamate; ref 10; cited from earlier work
[8] = tested on: Pure variant di-heteromeric GluN2B-M818T; set-up: method as in PMID 28377535; details: glutamate; ref 25; cited from earlier work
[9] = tested on: Pure variant di-heteromeric GluN2B-C461F; set-up: method as in PMID 27839871; details: glutamate; ref 21; cited from earlier work
[10] = molecular target: Mixed di-heteromeric GluN2B-wt/GluN2B-G689C (Rattus norvegicus, UniProt P35439+Q00960, G689C); assay: TEVC in Xenopus oocytes; details: glutamate dose-response
Description: (§2) Two electrode voltage clamp (TEVC) recordings were carried out 24–72 h after mRNA injections, as previously described [17, 37]. We use a commercial amplifier (Warner Instruments, USA) and Digitizer (Digidata-1550B; Molecular Devices, USA), controlled by the pClamp10 software (Molecular Devices, USA). Electrode were made by pulling glass capillaries (Narishige, Japan) filled with 3 M KCl, into which we inserted chlorinated silver wires. […] For hERG channel recordings, oocytes were clamped at (− 60) mV for 1 s, followed by a voltage jump to 20 mV for 4 s, and an additional voltage jump to (− 50) mV for 6 s and return to baseline voltage (see Supplementary. 6f), as previously described [53].
(§3) When assessing potentiation by PS, all other solutions also included equal amounts of the DMSO carrier (0.2%).
(§4) Electrophysiology data were analyzed by Clampfit 11.2 (Molecular Devices, USA), plotted using GraphPad 8 or SigmaPlot 11(Systat software, Inc.). […] In all TEVC recordings in oocytes, the responses were normalized to current amplitude obtained from that individual cell. […] All data are shown as mean ± SEM. In all experiments N indicates the number of independent experiments, whereas n indicates the number of cells recorded. In each experiment, data underwent normality test prior to statistical assessment. Normally distributed data were assessed for significance by using paired t-test or one-way ANOVA for multiple group comparison and post hoc Tukey test or Dunnett's test. Similarly, in the case of non-normally distributed data significance was assessed by Mann Whitney test or Kruskal–Wallis ANOVA on ranks test followed by Dunn’s multiple comparison post hoc; n.s., non-significant; *p < 0.05; **p < 0.01; ***p < 0.001. […] Leak expression was evaluated by normalizing the maximal current (Imax) of each ER-retained NMDAR composition to Imax of control group (which was recorded in all experiments). Estimation of activation time constant (τ) for potentiated currents by PS, was performed by fitting PS- potentiated currents with a standard single-exponential function, from which we extracted the time constant (τ).

[11] = tested on: Mixed di-heteromeric GluN2B-wt/GluN2B-G689C; assay: TEVC in Xenopus oocytes; details: compared to purely di-heteromeric variant channels
Description: as §2, §3, §4

[12] = tested on: Pure variant di-heteromeric GluN2A-H485A; set-up: method as in PMID 24607230; details: glutamate; ref 8; cited from earlier work
[13] = tested on: Mixed di-heteromeric GluN2A-wt/GluN2A-L812M; set-up: method as in PMID 24504326; details: glutamate; ref 39; cited from earlier work
[14] = tested on: Mixed tri-heteromeric GluN2A-wt/ GluN2B-G543R; set-up: method as in PMID 35110392; details: glutamate; ref 10; cited from earlier work
[15] = molecular target: T1, Purely di-heteromeric GluN2B-G689C (C1/C2) (Rattus norvegicus, UniProt P35439+Q00959+Q00960, A876H/F846L/G689C/G856D/H848F/K857R/M851T/M860L/Q845K/V861L); assay: TEVC in Xenopus oocytes; type: cell-based
T1 construct: expressed in transfected cells; host or cells: Xenopus laevis oocytes, mRNA injection
T1 sequence (Q00960+Q00959 fused with the stated changes, other chains not shown): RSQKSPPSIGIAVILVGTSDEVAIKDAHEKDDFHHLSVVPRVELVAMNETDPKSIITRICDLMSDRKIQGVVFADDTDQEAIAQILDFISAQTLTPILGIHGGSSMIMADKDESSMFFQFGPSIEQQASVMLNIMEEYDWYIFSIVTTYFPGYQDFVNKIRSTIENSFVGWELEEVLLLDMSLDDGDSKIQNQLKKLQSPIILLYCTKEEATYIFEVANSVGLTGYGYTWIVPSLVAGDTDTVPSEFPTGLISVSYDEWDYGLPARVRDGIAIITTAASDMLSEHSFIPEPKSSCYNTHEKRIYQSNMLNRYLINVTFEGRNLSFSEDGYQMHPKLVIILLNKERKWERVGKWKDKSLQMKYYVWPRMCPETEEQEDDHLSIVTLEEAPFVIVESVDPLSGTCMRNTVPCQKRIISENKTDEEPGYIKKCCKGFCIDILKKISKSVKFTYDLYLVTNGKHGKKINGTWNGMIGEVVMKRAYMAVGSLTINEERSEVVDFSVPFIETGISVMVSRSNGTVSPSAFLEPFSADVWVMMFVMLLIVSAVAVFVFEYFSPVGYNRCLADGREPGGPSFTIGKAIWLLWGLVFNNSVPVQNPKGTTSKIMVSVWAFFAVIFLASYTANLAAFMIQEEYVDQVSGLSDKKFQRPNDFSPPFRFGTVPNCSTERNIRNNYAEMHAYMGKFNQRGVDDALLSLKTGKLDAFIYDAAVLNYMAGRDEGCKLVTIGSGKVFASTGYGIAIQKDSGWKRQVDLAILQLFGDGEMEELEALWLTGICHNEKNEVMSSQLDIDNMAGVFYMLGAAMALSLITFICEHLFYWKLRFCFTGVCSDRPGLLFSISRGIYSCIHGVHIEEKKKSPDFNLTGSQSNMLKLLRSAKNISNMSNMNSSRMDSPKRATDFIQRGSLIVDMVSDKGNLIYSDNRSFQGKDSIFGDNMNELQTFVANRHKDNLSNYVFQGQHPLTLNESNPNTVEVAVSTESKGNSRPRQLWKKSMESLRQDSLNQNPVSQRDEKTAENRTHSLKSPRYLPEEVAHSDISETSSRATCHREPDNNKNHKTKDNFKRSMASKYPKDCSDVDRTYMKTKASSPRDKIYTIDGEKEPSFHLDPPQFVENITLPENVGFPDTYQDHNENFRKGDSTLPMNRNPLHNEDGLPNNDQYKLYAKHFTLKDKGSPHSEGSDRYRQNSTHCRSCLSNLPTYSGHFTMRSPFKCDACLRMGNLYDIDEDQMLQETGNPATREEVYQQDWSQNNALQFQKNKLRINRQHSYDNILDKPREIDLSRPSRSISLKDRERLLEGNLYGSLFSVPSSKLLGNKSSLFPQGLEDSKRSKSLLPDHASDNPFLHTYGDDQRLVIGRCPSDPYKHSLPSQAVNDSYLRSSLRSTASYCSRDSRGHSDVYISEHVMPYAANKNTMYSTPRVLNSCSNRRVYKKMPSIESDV
Text: (§1) Aliquots were thawed before each experiment.

[16] = molecular target: T2, Purely di-heteromeric GluN2B-wt (GluN1-1a-wt + GluN2B-wt-C1/C2) (Rattus norvegicus, UniProt P35439+Q00959+Q00960, A876H/F846L/G856D/H848F/K857R/M851T/M860L/Q845K/V861L); assay: TEVC in Xenopus oocytes; type: cell-based; details: glutamate dose-response
T2 construct: expressed in transfected cells; host or cells: Xenopus laevis oocytes, mRNA injection
T2 sequence (Q00960+Q00959 fused with the stated changes, other chains not shown): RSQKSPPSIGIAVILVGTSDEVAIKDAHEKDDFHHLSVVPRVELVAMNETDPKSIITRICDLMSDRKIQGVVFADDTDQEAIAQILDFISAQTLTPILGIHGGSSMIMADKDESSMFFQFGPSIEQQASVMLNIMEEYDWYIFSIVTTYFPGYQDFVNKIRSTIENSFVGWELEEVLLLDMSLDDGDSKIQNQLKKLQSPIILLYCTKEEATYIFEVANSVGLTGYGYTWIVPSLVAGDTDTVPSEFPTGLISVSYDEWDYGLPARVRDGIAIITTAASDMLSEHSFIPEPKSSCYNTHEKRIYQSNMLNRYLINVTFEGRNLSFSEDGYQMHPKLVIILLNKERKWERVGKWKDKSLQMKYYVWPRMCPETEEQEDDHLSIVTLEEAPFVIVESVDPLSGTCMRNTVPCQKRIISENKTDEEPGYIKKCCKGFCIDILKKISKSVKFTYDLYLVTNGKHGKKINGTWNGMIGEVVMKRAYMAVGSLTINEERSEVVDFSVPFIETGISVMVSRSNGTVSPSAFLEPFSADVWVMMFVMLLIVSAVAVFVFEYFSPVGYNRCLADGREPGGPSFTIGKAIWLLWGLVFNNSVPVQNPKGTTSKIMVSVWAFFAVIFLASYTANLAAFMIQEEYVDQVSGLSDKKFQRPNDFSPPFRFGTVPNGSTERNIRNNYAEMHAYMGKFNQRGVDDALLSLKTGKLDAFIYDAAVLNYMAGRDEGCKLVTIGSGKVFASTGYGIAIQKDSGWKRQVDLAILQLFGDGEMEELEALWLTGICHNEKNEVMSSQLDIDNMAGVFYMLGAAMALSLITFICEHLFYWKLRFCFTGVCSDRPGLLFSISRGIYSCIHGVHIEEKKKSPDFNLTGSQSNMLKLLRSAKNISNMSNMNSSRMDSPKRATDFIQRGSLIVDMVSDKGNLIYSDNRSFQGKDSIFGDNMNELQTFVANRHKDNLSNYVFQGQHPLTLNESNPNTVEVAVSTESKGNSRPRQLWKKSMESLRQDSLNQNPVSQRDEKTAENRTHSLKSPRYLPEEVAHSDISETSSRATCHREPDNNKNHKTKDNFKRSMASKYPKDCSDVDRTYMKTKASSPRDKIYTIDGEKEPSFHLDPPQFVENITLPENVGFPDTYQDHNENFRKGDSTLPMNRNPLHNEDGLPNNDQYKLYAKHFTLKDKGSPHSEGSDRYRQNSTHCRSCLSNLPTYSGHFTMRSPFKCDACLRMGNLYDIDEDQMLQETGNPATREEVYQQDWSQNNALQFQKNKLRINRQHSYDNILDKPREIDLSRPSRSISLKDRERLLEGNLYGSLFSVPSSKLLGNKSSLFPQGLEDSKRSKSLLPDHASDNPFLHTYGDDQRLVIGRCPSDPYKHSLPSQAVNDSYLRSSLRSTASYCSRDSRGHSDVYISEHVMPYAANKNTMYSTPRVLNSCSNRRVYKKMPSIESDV
Text: as §1

[17] = molecular target: T3, Purely di-heteromeric GluN2B-G689S (C1/C2) (Rattus norvegicus, UniProt P35439+Q00959+Q00960, A876H/F846L/G689S/G856D/H848F/K857R/M851T/M860L/Q845K/V861L); assay: TEVC in Xenopus oocytes; type: cell-based
T3 construct: expressed in transfected cells; host or cells: Xenopus laevis oocytes, mRNA injection
T3 sequence (Q00960+Q00959 fused with the stated changes, other chains not shown): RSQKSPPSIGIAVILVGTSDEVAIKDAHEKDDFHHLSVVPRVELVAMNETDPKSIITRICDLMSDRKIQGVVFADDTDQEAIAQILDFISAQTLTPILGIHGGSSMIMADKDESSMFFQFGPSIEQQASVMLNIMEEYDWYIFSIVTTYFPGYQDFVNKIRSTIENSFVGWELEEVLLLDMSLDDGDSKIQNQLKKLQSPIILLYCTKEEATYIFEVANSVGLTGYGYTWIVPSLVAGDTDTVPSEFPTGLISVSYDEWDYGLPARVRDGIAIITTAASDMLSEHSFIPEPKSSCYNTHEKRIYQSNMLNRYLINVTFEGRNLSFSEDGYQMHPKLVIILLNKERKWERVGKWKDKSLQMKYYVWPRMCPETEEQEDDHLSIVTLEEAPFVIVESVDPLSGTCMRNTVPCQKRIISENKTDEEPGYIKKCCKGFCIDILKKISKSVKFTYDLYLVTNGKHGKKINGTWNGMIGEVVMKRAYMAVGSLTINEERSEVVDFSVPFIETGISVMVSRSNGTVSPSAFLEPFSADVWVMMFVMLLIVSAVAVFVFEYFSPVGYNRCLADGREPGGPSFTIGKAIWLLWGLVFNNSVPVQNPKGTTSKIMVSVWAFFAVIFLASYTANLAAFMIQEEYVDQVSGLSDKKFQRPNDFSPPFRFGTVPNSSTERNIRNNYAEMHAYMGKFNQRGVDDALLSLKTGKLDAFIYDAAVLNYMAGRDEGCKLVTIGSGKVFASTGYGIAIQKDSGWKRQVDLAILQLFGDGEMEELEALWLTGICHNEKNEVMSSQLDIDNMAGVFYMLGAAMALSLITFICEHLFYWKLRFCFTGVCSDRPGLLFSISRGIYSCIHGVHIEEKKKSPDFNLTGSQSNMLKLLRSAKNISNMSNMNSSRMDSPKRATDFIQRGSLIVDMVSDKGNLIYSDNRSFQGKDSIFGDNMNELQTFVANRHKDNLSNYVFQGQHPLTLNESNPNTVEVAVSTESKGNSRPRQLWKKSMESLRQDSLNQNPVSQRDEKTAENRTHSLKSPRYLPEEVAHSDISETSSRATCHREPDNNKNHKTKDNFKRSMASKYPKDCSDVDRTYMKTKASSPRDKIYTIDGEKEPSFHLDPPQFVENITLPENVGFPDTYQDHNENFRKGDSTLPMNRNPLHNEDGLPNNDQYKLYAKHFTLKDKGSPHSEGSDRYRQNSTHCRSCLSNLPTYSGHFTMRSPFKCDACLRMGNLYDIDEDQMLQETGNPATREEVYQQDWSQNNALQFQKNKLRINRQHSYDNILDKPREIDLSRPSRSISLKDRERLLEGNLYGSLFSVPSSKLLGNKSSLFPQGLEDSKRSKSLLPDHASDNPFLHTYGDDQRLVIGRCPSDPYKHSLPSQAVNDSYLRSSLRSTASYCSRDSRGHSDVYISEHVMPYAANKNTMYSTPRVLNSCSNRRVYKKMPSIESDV
Text: as §1

[18] = molecular target: T4, Mixed di-heteromeric GluN2B-wt/GluN2B-G689S (Rattus norvegicus, UniProt P35439+Q00960, G689S); assay: TEVC in Xenopus oocytes; type: cell-based
T4 construct: expressed in transfected cells; host or cells: Xenopus laevis oocytes, mRNA injection
Text: as §1

[19] = tested on: Mixed di-heteromeric GluN2A-wt/GluN2A-S644G; set-up: method as in PMID 32577763; details: glutamate; ref 19; cited from earlier work
[20] = tested on: Mixed di-heteromeric GluN2B-wt/GluN2B-E413G; set-up: method as in PMID 27839871; details: glutamate; ref 21; cited from earlier work
[21] = tested on: Pure variant di-heteromeric GluN2A-M817V; set-up: method as in PMID 28126851; details: glutamate; ref 91; cited from earlier work
[22] = tested on: Mixed tri-heteromeric GluN2A-M817V/ GluN2B-wt; set-up: method as in PMID 35110392; details: glutamate; ref 10; cited from earlier work
[23] = tested on: Mixed tri-heteromeric GluN2A-wt/ GluN2B-M818T; set-up: method as in PMID 35110392; details: glutamate; ref 10; cited from earlier work
[24] = tested on: Double Variant Tri-Heteromeric NMDAR (GluN2A-H485A, GluN2B-H486A); set-up: method as in PMID 24607230; details: glutamate; ref 8; cited from earlier work
[25] = tested on: Mixed tri-heteromeric GluN2A-wt/ GluN2B-A639V; set-up: method as in PMID 35110392; details: glutamate; ref 10; cited from earlier work
[26] = tested on: Pure variant di-heteromeric GluN2A-L812M; set-up: method as in PMID 24504326; details: glutamate; ref 39; cited from earlier work
[27] = tested on: Pure variant di-heteromeric GluN2B-H486A; set-up: method as in PMID 24607230; details: glutamate; ref 8; cited from earlier work
[28] = compared to GluN2B-wt-C1/C2 receptors

N[C@@H](CCC(=O)O)C(=O)O [Glutamate, glutamate]
EC50 [1]: 660 µM | EC50 [2]: 82 µM | EC50 [3]: 840 nM | EC50 [4]: 1.5 ± 0.2 mM | EC50 [5]: 640 nM | EC50 [6]: 1400 ± 100 nM | EC50 [7]: 470 nM | EC50 [8]: 370 nM | EC50 [9]: 290 µM | Hill coefficient (nH) [10]: 0.75 ± 0.08 n.s (N = 6, n = 54) | higher (improved) glutamate potency [11]: ~ four-fold | EC50 [12]: 1.06 mM | EC50 [13]: 1000 nM | EC50 [14]: 1900 nM | increase in the EC50 value [15, 28]: ~ 2000 fold | Hill coefficient (nH) ([15]; glutamate dose-response): 2.04 ± 0.28 (N = 2, n = 13) | Hill coefficient (nH) [16]: 0.86 ± 0.29 (N = 6, n = 38) | increase in the EC50 value [17, 28]: > 3000 fold | Hill coefficient (nH) ([17]; glutamate dose-response): 2.45 ± 0.41 (N = 2, n = 9) | higher (improved) glutamate potency ([18]; compared to purely di-heteromeric variant channels): ~ four-fold | Hill coefficient (nH) ([18]; glutamate dose-response): 1.02 ± 0.10 n.s (N = 1, n = 13) | EC50 [19]: 700 nM | EC50 [20]: 21 µM | EC50 [21]: 470 nM | EC50 [22]: 750 nM | EC50 [23]: 960 nM | EC50 [24]: 730 µM | EC50 [25]: 580 nM | EC50 [26]: 390 nM | EC50 [27]: 460 µM
